Common to all, as to assay type: cell-based, human
For assay [1], the system named is pUAS-1-driven EYFP expression in HEK293T cells transfected with GAL4- and VPR-fused PROTAC target protein / E3 ubiquitin ligase. Briefly: PROTAC-CID inducible EYFP gene activation, flow cytometry. As to conditions: for Bottom (best-fit value) / Span (best-fit value) / Top (best-fit value): Table 4 nonlinear regression of EYFP activation; for Bottom (best-fit value) / Span (best-fit value) / Top (best-fit value) / Hillslope (best-fit value) / logEC50 (best-fit value): FIG. 13A; for Hillslope (best-fit value) / logEC50 (best-fit value): Table 4 nonlinear regression; for increase in EYFP expression / EYFP induction compared to DMSO-treated controls: bromodomain-VPR fusion co-transfected with GAL4-VHL, FIG. 1C 5 μM dTRIM24, FIG. 1D 100 nM MZ1 or 1 μM AT1. The procedure:
(§1) Fluorescence assay using flow cytometry analysis. Cells were treated with 0.05% Trpsin EDTA (Thermo Fisher Scientific no. 25300054) or TrypLE (Thermo Fisher Scientific no. 12605028) after transfection and centrifuged at 3000 g for 5 min. Supernatant was removed and the cell pellet was resuspended with 200 μL phosphate buffered saline (PBS) without calcium and magnesium (Thermo Fisher Scientific no. 10010023). Cells were transferred into 12×75 mm flow tubes (Global Scientific no. 110410). Cells were analyzed by MA900 flow cytometry (SONY). 405 nm laser (FL6 filter) was used for testing the BFP channel. 488 nm (FL1 filter) was used for testing the EYFP and GFP channel. Automated alignment using Automatic Setup Beads kit (SONY no. LE-B3001) is performed before running samples. In FIGS. 3A, 3B, and 17, experiments were performed under 2% FSC, 17% BSC, 24% FL1. In FIG. 18, experiments were performed under 2% FSC, 17% BSC, 27% FL1. All the other experiments were performed under 2% FSC, 17% BSC, 24% FL1 and 27% FL6. Flow cytometry data was processed and analyzed by FlowJo 10. Events were first gated with forward scatter-Area (FSC-A) and side scatter-Area (SSC-A) to select viable cells and remove the debris and dead cells. Cells were further gated with FSC-A and FSC-Height (FSC-H) for selecting single cells. The mean intensity of the reporter fluorescent protein (BFP and EYFP) in viable and single cell populations were calculated by FlowJo 10 as the mean of FL6-A and FL1-A. When calculating the fold change of relative fluorescence units (RFU), the relative fluorescence units of EYFP was calculated by dividing the mean of fluorescence intensity of EYFP with the mean of BFP fluorescence intensity for normalization as the following formula: […]
(§2) Next, the mean of the normalized relative fluorescence units of induced group were divided by the value of control group for calculating the fold change as the following formula: […]
(§3) Transfection and microscopy. HEK293T cells (American Type Culture Collection, no. CRL-3216) were cultured with high-glucose Dulbecco's modified Eagle's medium (DMEM) (Thermo Fisher Scientific no. 10569044) with 10% fetal bovine serum (FBS) (Thermo Fisher Scientific no. 10437028) and 1×penicillin-streptomycin (Thermo Fisher Scientific no. 15140122) at 37° C. with 5% CO2. Except for the data in FIGS. 3C, 3E, and 3H, cells were plated into 96 well plate (Corning no. 3598) and transfected by Polyethyleneimine Max (PEI Max) (Polysciences no. 24765-1). 1.5 μL PEI Max (1 mg/mL, pH=7.1) and 100 μl DMEM were mixed with plasmids to be slowly dropped into the cell medium after 30 mins of incubation. Medium was changed 12 hours post-transfection. The inductive small molecules, including Rapamycin (STEM CELL technologies no. 73362), dTAG-13 (TOCRIS no. 6605/5), dTAG^V-1 (TOCRIS no. 6744-5), dBRD9 (TOCRIS no. 6606/5), dTRIM24 (TOCRIS no. 6607/5), MZ1 (TOCRIS no. 6154/5), AT1 (TOCRIS no. 6356/5), TL13-12 (TOCRIS no. 6744/5), TL13-112 (TOCRIS no. 6745/5), dTAG-7 (TOCRIS no. 69125), ZXH3-26 (TOCRIS no. 6713/5) and ABA (GoldBio no. A-050-100), dissolved in Dimethyl sulfoxide (DMSO) (Sigma, no. D8418) were added. For the microscopy observation, the images were taken by Microscopy EVOS (Life Technologies) and processed by ImageJ (Schneider et al., 2012). If not otherwise noted, 60 ng of each plasmid were used for each sample.
(§4) Step-by-step fluorescence protein activation assay protocol. Reagents: • 1. PEI Max (Polysciences no. 24765-1) • 2. DMEM, high glucose, GlutaMAX™ Supplement, pyruvate (Thermo Fisher Scientific no. 10569044) • 3. Penicillin-Streptomycin (10,000 U/mL) (Thermo Fisher Scientific no. 15140122) • 4. Fetal Bovine Serum 500ML (FBS) (Thermo Fisher Scientific no. 10437028) • 5. TrypLE™ Express Enzyme (1×), phenol red (Thermo Fisher Scientific no. 12605068) • 6. PBS pH=7.4 (Thermo Fisher Scientific no. 10010023) • 7. Sony sorting chip […] for MA900 (SONY no. LE-C3210) • 8. Automatic Setup Beads kit (SONY no. LE-B3001) • 9. […]

Assay in assay [2]: as above
As to conditions: Homo sapiens, HEK-293T, FIG. 13A. As to the method: as §1, §2, §3, §4

Assay [3] concerns pUAS-2-Fluc expression in HEK293T cells with cognate or non-cognate GAL4/VPR protein pairs. As to the kind of experiment: Orthogonality analysis, Firefly luciferase (Fluc) luminescence. As to conditions: seven different protein pairs, 2 days, FIGS. 2A and 14. As to the method:
Luciferase luminescence intensity measurement. Before transfection, HEK293T cells were seeded in clear bottom 96 well assay plates (Corning no. 3610) with 100 μL DMEM with 10% FBS and 1× penicillin-streptomycin at 37° C. with 5% CO2. When cells reached 50% confluency, 1.5 μL PEI Max (1 mg/mL, pH=7.1) and 100 μL DMEM were mixed with 60 ng of each plasmid (GAL4 and VPR fused target protein or E3 ubiquitin ligase, pUAS-2-Fluc) for 30 min at room temperature. Mixture was transferred into cells gently. 12 h after transfection, medium was changed, and the inductive small molecules were supplied. 2-days post induction, 120 μL of medium was aspirated from each well containing 200 μL of medium, leaving 80 μL of medium per well, then treated with 40 μL of lysis buffer (500 mM DTT (Sigma no. D0632), 10 mM coenzyme A (RPI no. C95275), 100 mM ATP (Thermo Fisher Scientific no. R1441), 80 mg/mL D-luciferin (GoldBio no. LUCNA-100), Triton lysis buffer (0.1082 M Tris-HCl, 0.0419 M Tris-Base, 75 mM NaCl, 3 mM MgCl2)). Plate was shaken with 20 seconds in “Orbital” mode with frequency of 432 rpm and Amplitude of 1 mm to lysis the cells. Recording the luminescence by plate reader Infinite M200 (TECAN) with 1000 ms integration time using Megellan v1.7 (TECAN). Mean of luciferase luminescence relative light units (RLU) was calculated by the average of three biological replications. Normalized RLU were calculated by dividing RLU of the tested group with mean of RLU of DMSO treated control group for normalization: […]

[4] abbreviates: Table 4 nonlinear regression, Prism 9 [Agonist] vs. response variable slope (four parameters), no unit in table (the source gives nM), read-out: EC50 (best-fit value).
Where [5] appears, read: dose-response, read-out: EC50 for gene activation.

Read-outs that look alike come from different tables or passages of the source.

Turning to `CCCOc1cccc(Oc2cc3c(cc2NS(=O)(=O)c2cccc(C(=O)NCCOCCOCCOCC(=O)N[C@H](C(=O)N4C[C@H](O)C[C@H]4C(=O)NCc4ccc(-c5scnc5C)cc4)C(C)(C)C)c2)n(C)c(=O)n3C)c1` [dTRIM24], the “grades of EYFP intensity” value in assay [1] (HEK293T transfected with GAL4-VHL, TRIM24^BD-VPR, BRD4^BD2-VPR and reporter plasmid, FIG. 2E: dTRIM24, MZ1 100 nM) came out at 37 fold. In addition, in assay [1], the “Bottom (best-fit value)” value is 0.5037, the “Span (best-fit value)” value was 1430, the “Top (best-fit value)” value came to 1431 and the “Hillslope (best-fit value)” value is given as 1.463. Also, the “logEC50 (best-fit value)” value in assay [1] worked out at 3.803. Further, the “fold change gene activation activity” value in assay [1] (at 5 μM) is reported as “more than 500 fold”. In addition, the “fold change in EYFP expression” value in assay [1] (below 1 μM) is reported as “less than 100 fold”. In assay [2] (setting [4]), the EC50 was 6350 nM. The EC50 in assay [2] (setting [5]) came out at 6300 nM.
For `Cc1cc(Nc2ncc(Cl)c(Nc3ccccc3S(=O)(=O)C(C)C)n2)c(OC(C)C)cc1C1CCN(CCOCCOCCNC(=O)CNc2cccc3c2C(=O)N(C2CCC(=O)NC2=O)C3=O)CC1` (centres unmarked) [TL13-112], the “orthogonality: Fluc activation with cognate vs non-cognate protein partners” value (from here on “orthogonality … vs non-cognate protein partners”) in assay [3] is on record as “interact with the same protein pairs”.
As to `CC1=CC(=O)CC(C)(C)[C@@]1(O)/C=C/C(C)=C\C(=O)O` [ABA, abscisic acid], in assay [1], the “Bottom (best-fit value)” value is recorded as 1.587, the “Span (best-fit value)” value is reported as 77.84, the “Top (best-fit value)” value is given as 79.43 and the “Hillslope (best-fit value)” value is 2.083. Moreover, the “logEC50 (best-fit value)” value in assay [1] is 2.882. Also, the EC50 in assay [2] (setting [4]) was found to be 763 nM. In assay [2] (setting [5]), the EC50 is 763 nM.
`Nc1cccc2c1CN(C1CCC(=O)NC1=O)C2=O` (centres unmarked) [Lenalidomide]: in assay [1] (CRBN-VPR with GAL4 fused IKZF1 or IKZF3, Lenalidomide 1 μM vs 100 nM dTAG-13, 2 days, FIGS. 11D-11E), the “inducible gene activation efficiency compared with dTAG-13 PROTAC-CID” value was “significantly less efficient than the dTAG-13 PROTAC-CID system”.
In the case of `COc1cc(N2CCN(CCOCCOCCNC(=O)CNc3cccc4c3C(=O)N(C3CCC(=O)NC3=O)C4=O)CC2)ccc1Nc1ncc(Cl)c(Nc2ccccc2S(=O)(=O)C(C)C)n1` (centres unmarked) [TL13-12], the “orthogonality … vs non-cognate protein partners” value in assay [3] is recorded as “interact with the same protein pairs”.
As for `CC(=O)N[C@H](C(=O)N1C[C@H](O)C[C@H]1C(=O)NCc1ccc(-c2scnc2C)cc1)C(C)(C)SCCCCCCNC(=O)C[C@@H]1N=C(c2ccc(Cl)cc2)c2c(sc(C)c2C)-n2c(C)nnc21` [AT1], the “orthogonality … vs non-cognate protein partners” value in assay [3] is given as “interact with the same protein pairs”.

B1: TRIM24BD-VPR: Fusion protein of VPR with the bromodomain of TRIM24 (SEQ ID NO: 4) (protein)
chain: MPKKKRKVGGGSPGGGGSPNEDWCAVCQNGGELLCCEKCPKVFHLSCHVPTLTNFPSGEWICTFCRDLSKPEVEYDCDAPSHNSEKKKTEGLVKLTPIDKRKCERLLLFLYCHEMSLAFQDPVPLTVPDYYKIIKNPMDLSTIKKRLQEDYSMYSKPEDFVADFRLIFQNCAEFNEPDSEVANAGIKLENYFEELLKNLYPGGGSRADPKKKRKVEASGSGRADALDDFDLDMLGSDALDDFDLDMLGSDALDDFDLDMLGSDALDDFDLDMLINSRSQYLPDTDDRHRIEEKRKRTYETFKSIMKKSPFSGPTDPRPPPRRIAVPSRSSASVPKPAPQPYPFTSSLSTINYDEFPTMVFPSGQISQASALAPAPPQVLPQAPAPAPAPAMVSALAQAPAPVPVLAPGPPQAVAPPAPKPTQAGEGTLSEALLQLQFDDEDLGALLGNSTDPAVFTDLASVDNSEFQQLLNQGIPVAPHTTEPMLMEYPEAITRLVTGAQRPPDPAPAPLGAPGLPNGLLSGDEDFSSIADMDFSALLGSGSGSRDSREGMFLPKPEAGSAISDVFEGREVCQPKRIRPFHPPGSPWANRPLPASLAPTPTGPVHEPVGSLTPAPVPQPLDPAPAVTPEASHLLEDPDEETSQAVKALREMADTVIPQKEEAAICGQMDLSHPPPRGHLDELTTTLESMTEDLNLDSPLTPELNEILDTFLNDECLLHAMHISTGLSIFDTSLFTSGGGSKRPAATKKAGQAKKKKSR
Regarding B1, in assay [1], the “increase in EYFP expression / EYFP induction compared to DMSO-treated controls” value turned out to be 592 fold.

B2: BRD4^BD2-VPR: Fusion protein of VPR with bromodomain BD2 of BRD4 (SEQ ID NO: 7) (protein)
chain: MPKKKRKVGGGSPGGGGSSKVSEQLKCCSGILKEMFAKKHAAYAWPFYKPVDVEALGLHDYCDIIKHPMDMSTIKSKLEAREYRDAQEFGADVRLMFSNCYKYNPPDHEVVAMARKLQDVFEMRFAKMPDGGGSRADPKKKRKVEASGSGRADALDDFDLDMLGSDALDDFDLDMLGSDALDDFDLDMLGSDALDDFDLDMLINSRSQYLPDTDDRHRIEEKRKRTYETFKSIMKKSPFSGPTDPRPPPRRIAVPSRSSASVPKPAPQPYPFTSSLSTINYDEFPTMVFPSGQISQASALAPAPPQVLPQAPAPAPAPAMVSALAQAPAPVPVLAPGPPQAVAPPAPKPTQAGEGTLSEALLQLQFDDEDLGALLGNSTDPAVFTDLASVDNSEFQQLLNQGIPVAPHTTEPMLMEYPEAITRLVTGAQRPPDPAPAPLGAPGLPNGLLSGDEDFSSIADMDFSALLGSGSGSRDSREGMFLPKPEAGSAISDVFEGREVCQPKRIRPFHPPGSPWANRPLPASLAPTPTGPVHEPVGSLTPAPVPQPLDPAPAVTPEASHLLEDPDEETSQAVKALREMADTVIPQKEEAAICGQMDLSHPPPRGHLDELTTTLESMTEDLNLDSPLTPELNEILDTFLNDECLLHAMHISTGLSIFDTSLFTSGGGSKRPAATKKAGQAKKKKSR
Regarding B2, the “increase in EYFP expression / EYFP induction compared to DMSO-treated controls” value in assay [1] came to 441 fold.

The values above are taken from patent publication US20250382631A1, “PROTAC-CID SYSTEMS FOR USE IN MULTIPLEX GENE REGULATION” (William Marsh Rice University, priority 2022, published 2025).
